Measured values as given in publication PMC6943536, “Free and Bound Phenolics of Buckwheat Varieties: HPLC Characterization, Antioxidant Activity, and Inhibitory Potency towards α-Glucosidase with Molecular Docking Analysis” (Antioxidants, 2019).
In brackets after ≈: the same amount, converted by molar mass.

Molecular target: T1, α-glucosidase
T1 construct: gene MAL12; PDB 3A4A isomaltase is only a docking homologue
Assay: pNPG hydrolysis, absorbance […] nm
Type: biochemical, Saccharomyces cerevisiae
Conditions: 5 mM p-NPG stock (100 µL of 250 µL), 0.1 M phosphate buffer pH 6.8, 37 °C, 10 min preincubation

Row | IC50 [µg/mL] | Compound
1 | 114.45 ± 0.31 (≈ 357 µM) | O=C1c2c(O)cc(O)cc2O[C@H](c2cc(O)c(O)c(O)c2)[C@H]1O [dihydromyricetin]
2 | 447.50 ± 17.27 (≈ 753 µM) | C[C@@H]1O[C@@H](OC[C@H]2O[C@@H](Oc3c(-c4ccc(O)cc4)oc4cc(O)cc(O)c4c3=O)[C@H](O)[C@@H](O)[C@@H]2O)[C@H](O)[C@H](O)[C@H]1O [kaempferol-3-O-rutinoside]
